From patent publication US7091183B1 (Boston Medical Center Corporation, priority 1996, dated 2006)
“And” between values parts separate entries of the source, which are not always exact repeats. Equal entries are not always repeated. Where two headings read alike, the source gives them in different places. One block for each compound: values may come before it. Where no end group is shown, it is not given here.

Legend:
rat GIP receptor [1] = target: T1, rat GIP receptor (Rattus norvegicus, UniProt P43219); test: cAMP-dependent β-galactosidase production in LGIPR2 cells (agonist activity); format: cell-based; details: for β-gal level stimulated by peptide alone: FIG. 1B; for stimulation of cAMP-dependent β-galactosidase production (versus GIP (1–42) / above control levels): 10^−8 M peptide, 4 h
T1 construct: expressed in transfected cells; host or cells: L cells (LGIPR2), also carrying a VIP-promoter/lacZ cAMP reporter
T1 sequence (P43219 19-455): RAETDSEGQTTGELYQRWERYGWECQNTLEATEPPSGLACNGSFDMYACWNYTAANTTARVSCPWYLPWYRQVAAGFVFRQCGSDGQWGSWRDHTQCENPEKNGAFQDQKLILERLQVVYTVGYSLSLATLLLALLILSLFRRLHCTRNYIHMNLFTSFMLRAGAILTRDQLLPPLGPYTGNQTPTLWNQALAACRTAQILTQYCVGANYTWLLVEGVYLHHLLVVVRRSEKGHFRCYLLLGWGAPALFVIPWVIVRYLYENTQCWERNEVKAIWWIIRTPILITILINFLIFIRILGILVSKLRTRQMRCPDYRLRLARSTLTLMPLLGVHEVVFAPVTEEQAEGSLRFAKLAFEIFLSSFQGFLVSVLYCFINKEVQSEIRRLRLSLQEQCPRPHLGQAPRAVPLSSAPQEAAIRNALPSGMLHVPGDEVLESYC
Description: LGIPR2 cells are stably transfected with a cAMP-dependent promoter from the VIP gene fused to the bacterial lac Z gene. When intracellular cAMP increases within these cells, lac Z gene transcription is activated, resulting in the accumulation of its product, β-galactosidase. The measurement of β-galactosidase in this system provided a convenient, inexpensive, and nonradioactive method for detecting changes in the levels of intracellular cAMP. […] The medium was then removed and wells rinsed once with phosphate-buffered saline (PBS). The plates were then blotted briefly and frozen overnight at −70° C., and, after the addition of chlorophenol red-β-D-galactopyranoside, accumulated β-galactosidase was detected using a calorimetric assay, as described previously (Usdin, et al., 1993, Endocrinology, 133:2861–2870). […] Natl. Acad. Sci. USA, 90:1992–1996).

fasted anesthetized rats = test: Intravenous infusion of peptides in fasting anesthetized rats, plasma insulin; format: in vivo, rat; details: for plasma insulin level after infusion: 30 min i.v. infusion
GIP receptor [2] = target: T2, GIP receptor (Mus musculus, UniProt Q0P543); details: βTC3 cells; cited from earlier work
T2 construct: host or cells: βTC3 cells (endogenous receptor)
T2 sequence (Q0P543 19-460): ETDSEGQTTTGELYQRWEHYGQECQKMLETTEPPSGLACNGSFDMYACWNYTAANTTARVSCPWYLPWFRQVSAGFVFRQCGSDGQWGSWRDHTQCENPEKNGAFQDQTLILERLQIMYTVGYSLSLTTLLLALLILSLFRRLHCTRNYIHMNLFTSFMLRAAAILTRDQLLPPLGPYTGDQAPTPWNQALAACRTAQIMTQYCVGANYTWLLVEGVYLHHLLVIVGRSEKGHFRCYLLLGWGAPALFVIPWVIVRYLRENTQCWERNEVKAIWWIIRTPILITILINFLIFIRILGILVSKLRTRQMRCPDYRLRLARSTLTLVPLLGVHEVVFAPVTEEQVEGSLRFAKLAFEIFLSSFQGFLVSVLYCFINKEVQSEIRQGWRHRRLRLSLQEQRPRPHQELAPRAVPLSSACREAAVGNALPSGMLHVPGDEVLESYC

rat GIP receptor [3] = target: T1, rat GIP receptor; test: Inhibition of GIP (1–42)-stimulated cAMP-dependent β-galactosidase production in LGIPR2 cells; format: cell-based; details: 10^−8 M GIP (1–42) plus fragment at 10^−8 M or 10^−6 M, 4 h
Procedure: LGIPR2 cells are stably transfected with a cAMP-dependent promoter from the VIP gene fused to the bacterial lac Z gene. When intracellular cAMP increases within these cells, lac Z gene transcription is activated, resulting in the accumulation of its product, β-galactosidase. The measurement of β-galactosidase in this system provided a convenient, inexpensive, and nonradioactive method for detecting changes in the levels of intracellular cAMP.
LGIPR2 cells were grown in Dulbecco's Modified Eagle's Medium (DMEM) containing 4.5 g/L of glucose and 10% fetal calf serum. For each assay, 10^5 cells/well were seeded onto 24-well plates. After incubation overnight, peptides were added in various concentrations to the wells in the absence of 3-isobutyl-methylxanthine (IBMX) for 4 h, at which time maximal stimulation of β-galactosidase was determined. The medium was then removed and wells rinsed once with phosphate-buffered saline (PBS). The plates were then blotted briefly and frozen overnight at −70° C., and, after the addition of chlorophenol red-β-D-galactopyranoside, accumulated β-galactosidase was detected using a calorimetric assay, as described previously (Usdin, et al., 1993, Endocrinology, 133:2861–2870).
Values are expressed as the mean±SE of quadruplicate measurements.

rats = details: exendin-treated rats, cited from earlier work
[4] = in vivo; cited from earlier work
GIP receptor [5] = details: cited from earlier work

Compound: CC[C@H](C)[C@H](NC(=O)[C@H](CO)NC(=O)[C@H](Cc1ccc(O)cc1)NC(=O)[C@H](CC(=O)O)NC(=O)[C@H](CO)NC(=O)[C@@H](NC(=O)[C@H](Cc1ccccc1)NC(=O)[C@@H](NC(=O)CNC(=O)[C@H](CCC(=O)O)NC(=O)[C@H](C)NC(=O)[C@@H](N)Cc1ccc(O)cc1)[C@@H](C)O)[C@@H](C)CC)C(=O)N[C@@H](C)C(=O)N[C@@H](CCSC)C(=O)N[C@@H](CC(=O)O)C(=O)N[C@@H](CCCCN)C(=O)N[C@H](C(=O)N[C@@H](CCCNC(=N)N)C(=O)N[C@@H](CCC(N)=O)C(=O)N[C@@H](CCC(N)=O)C(=O)N[C@@H](CC(=O)O)C(=O)N[C@@H](Cc1ccccc1)C(=O)N[C@H](C(=O)N[C@@H](CC(N)=O)C(=O)N[C@@H](Cc1c[nH]c2ccccc12)C(=O)N[C@@H](CC(C)C)C(=O)N[C@@H](CC(C)C)C(=O)N[C@@H](C)C(=O)N[C@@H](CCC(N)=O)C(=O)N[C@@H](CCCCN)C(=O)NCC(=O)N[C@@H](CCCCN)C(=O)N[C@@H](CCCCN)C(=O)N[C@@H](CC(N)=O)C(=O)N[C@@H](CC(=O)O)C(=O)N[C@@H](Cc1c[nH]c2ccccc12)C(=O)N[C@@H](CCCCN)C(=O)N[C@@H](Cc1c[nH]cn1)C(=O)N[C@@H](CC(N)=O)C(=O)N[C@@H](CC(C)C)C(=O)N[C@H](C(=O)N[C@@H](CCC(N)=O)C(=O)O)[C@@H](C)O)C(C)C)[C@@H](C)CC [GIP, glucose-dependent insulinotropic polypeptide]
- β-gal level stimulated by peptide alone (rat GIP receptor [1]): 0.95±0.04 O.D.
- concentration giving maximum effect on β-galactosidase production (rat GIP receptor [1]; at 4 h): 10^−8 M
- plasma insulin level after infusion (fasted anesthetized rats; GIP 0.5 nmol/kg): 43.5±2.7 μIU/ml
- plasma insulin level after infusion (fasted anesthetized rats; GIP 1.0 nmol/kg): 61.6±4.2 μIU/ml
- plasma insulin level after infusion (fasted anesthetized rats; GIP 1.5 nmol/kg): 72.4±3.5 μIU/ml

Compound: CC[C@H](C)[C@H](NC(=O)[C@H](Cc1ccccc1)NC(=O)[C@H](CCC(=O)O)NC(=O)[C@H](CCCCN)NC(=O)[C@H](C)NC(=O)[C@H](C)NC(=O)[C@H](CCC(N)=O)NC(=O)CNC(=O)[C@H](CCC(=O)O)NC(=O)[C@H](CC(C)C)NC(=O)[C@H](Cc1ccc(O)cc1)NC(=O)[C@H](CO)NC(=O)[C@H](CO)NC(=O)[C@@H](NC(=O)[C@H](CC(=O)O)NC(=O)[C@H](CO)NC(=O)[C@@H](NC(=O)[C@H](Cc1ccccc1)NC(=O)[C@@H](NC(=O)CNC(=O)[C@H](CCC(=O)O)NC(=O)[C@H](C)NC(=O)[C@@H](N)Cc1c[nH]cn1)[C@@H](C)O)[C@@H](C)O)C(C)C)C(=O)N[C@@H](C)C(=O)N[C@@H](Cc1c[nH]c2ccccc12)C(=O)N[C@@H](CC(C)C)C(=O)N[C@H](C(=O)N[C@@H](CCCCN)C(=O)NCC(=O)N[C@@H](CCCNC(=N)N)C(N)=O)C(C)C [GLP-1, glucagon like peptide-1 (7–36)]
- plasma insulin level at 30 min (fasted anesthetized rats; GLP-1 0.4 nmol/kg infusion): 50.3±3.7 μIU/ml

Compound: N=C(N)NCCC[C@H](N)C(=O)O [arginine]
- plasma insulin level at 30 min (fasted anesthetized rats; arginine 375 mg/kg infusion): 69.7±5.8 μIU/ml

- stimulation of cAMP-dependent β-galactosidase production (versus GIP (1–42) / above control levels) (rat GIP receptor [1]): nearly equipotent
Compound: GIP (1–30)-NH2 (YAEGTFISDYSIAMDKIRQQDFVNWLLAQK-NH2; listed as Rattus norvegicus)
- binding of GIP (1–42) to the GIP receptor (GIP receptor [2]): competitively inhibited binding

- stimulation of cAMP-dependent β-galactosidase production (versus GIP (1–42) / above control levels) (rat GIP receptor [1]): partial agonist activity
- β-gal level stimulated by peptide alone (rat GIP receptor [1]): 0.39 O.D.
- antagonism of the cAMP stimulatory effect of GIP (1–42) (rat GIP receptor [3]): an antagonist, albeit a weak one
Compound: GIP (10–30)-NH2 (YSIAMDKIRQQDFVNWLLAQK-NH2; listed as Rattus norvegicus)

- stimulation of cAMP-dependent β-galactosidase production (versus GIP (1–42) / above control levels) (rat GIP receptor [1]): did not mimic GIP and none
Compound: GIP (16–30)-NH2 (KIRQQDFVNWLLAQK-NH2; listed as Rattus norvegicus)
- antagonism of the cAMP stimulatory effect of GIP (1–42) (rat GIP receptor [3]): neither did they inhibit GIP-dependent effects

- stimulation of cAMP-dependent β-galactosidase production (versus GIP (1–42) / above control levels) (rat GIP receptor [1]): none
Compound: GIP (21–30)-NH2 (DFVNWLLAQK-NH2)

- stimulation of cAMP-dependent β-galactosidase production (versus GIP (1–42) / above control levels) (rat GIP receptor [1]): none
Compound: GIP (31–44) (GKKNDWKHNLTQRE; listed as Rattus norvegicus)

Compound: exendin (9–39)
- plasma glucose level (rats; increased from 7.5): 8.7 mmol/L
- reduction of postprandial insulin release (rats): 50% and 48%
- reduction of postprandial insulin release (rats; listed as exendin): ~50%
- reduction of insulin release following intraduodenal glucose infusion [4]: 70%
- GIP binding to its receptor (GIP receptor [5]): displaced GIP binding from its receptor
- cAMP generation in response to GIP stimulation (GIP receptor [5]): inhibits cAMP generation
